Literature values in patent US20130302415A1, “Pharmaceutical Composition” (CIPLA Limited, priority 2010, published 2013).

Conditions: class II = low solubility, high permeability

SMILES: O=C1Nc2ccc(Cl)cc2[C@@](C#CC2CC2)(C(F)(F)F)O1 [Efavirenz, (S)-6-chloro-4-cyclopropylethynyl-4-trifluoromethyl-1,4-dihydro-2H-3,1-benzoxazin-2-one]
- Biopharmaceutical Classification System class: class II
